Source: patent US7247438B1, “Methods of identifying agents which enhance caspase activity” (priority 1997, dated 2007)
“Also recorded” adds a separate entry of the source. Peptide text beside a SMILES is read from it. * marks the point of attachment. Cbz = O=C(OCc1ccccc1)*; CH2F = FC*

Experiments:
[1] = test system: CD4+ CD8+ DP thymocytes in FTOC of C57BL/6 mice; assay: anti-CD3ε mAb (2C11)-induced deletion of DP thymocytes in FTOC, FACS analysis; format: cell-based, mouse; set-up: effect on anti-CD3ε (2C11) mAb-induced deletion of DP thymocytes: dose or concentration left out as unconfirmed
[2] = test system: thymic caspase (~17 kD subunit); assay: Western blot of thymic lysates: binding of biotinylated substrate to activated thymic caspase and competition; set-up: species or system mouse; details: for blocking of biotin-DEVDamk binding to the antigen-activated caspase: pretreatment of thymic lysates with excess (100-fold molar, FIG. 2D) of inhibitor
[3] = test system: Rat thymocytes in suspension; details: cited from earlier work
[4] = test system: Drosophila Schneider cells; details: added to Drosophila Schneider cells; cited from earlier work
[5] = test system: thymocytes in N15 tg RAG-2−/− H-2b FTOC; format: cell-based, mouse
[6] = test system: CD4+ CD8+ DP thymocytes in FTOC of C57BL/6 mice; assay: glucocorticoid (dexamethasone)-induced DP thymocyte death in FTOC, FACS analysis; format: cell-based, mouse
[7] = test system: activated thymic caspase in N15 tg RAG-2−/− H-2b FTOC; format: cell-based, mouse; details: for effect of pretreatment on VSV8-induced caspase activation (biotin-DEVDamk staining): FTOC, inhibitor pretreatment, then VSV8 4 hours
[8] = test system: DP thymocytes in FTOC of N15 TCR tg RAG-2−/− H-2b mice; format: cell-based, mouse; details: for effect on antigen (VSV8)-induced depletion of DP thymocytes: N15 FTOC, 2 hours with 100 μM inhibitor followed by 18 hours with 10 μM VSV8
[9] = biological target: T1, caspase-1 (Homo sapiens, UniProt P29466); details: caspase-1 versus caspase-3; cited from earlier work
T1 sequence (P29466 120-297 limits assumed): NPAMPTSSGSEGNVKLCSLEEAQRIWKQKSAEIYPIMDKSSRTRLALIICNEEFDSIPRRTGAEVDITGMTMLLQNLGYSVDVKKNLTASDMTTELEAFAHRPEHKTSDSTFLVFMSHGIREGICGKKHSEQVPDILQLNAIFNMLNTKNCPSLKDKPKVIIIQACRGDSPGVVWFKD
T1 sequence (P29466 317-404 limits assumed): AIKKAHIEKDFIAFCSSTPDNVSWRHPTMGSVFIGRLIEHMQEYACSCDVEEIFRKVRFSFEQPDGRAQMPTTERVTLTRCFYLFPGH

[10] = biological target: T2, recombinant Mch2a (caspase-6) (Homo sapiens, UniProt P55212); assay: Western blot: binding of biotinylated substrate to recombinant Mch2a; details: FIG. 2B; 15 minutes with 2 mM biotin-DEVDamk
T2 construct: made in house
T2 sequence (P55212 24-179 limits assumed): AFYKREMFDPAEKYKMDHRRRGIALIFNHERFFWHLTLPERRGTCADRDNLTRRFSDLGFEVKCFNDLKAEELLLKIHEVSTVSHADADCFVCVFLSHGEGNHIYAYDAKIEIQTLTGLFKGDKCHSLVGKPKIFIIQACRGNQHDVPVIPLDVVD
T2 sequence (P55212 194-293 limits assumed): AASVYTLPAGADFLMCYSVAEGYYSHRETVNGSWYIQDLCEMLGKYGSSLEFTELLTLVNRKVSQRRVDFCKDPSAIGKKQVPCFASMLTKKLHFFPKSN

[11] = biological target: T3, recombinant Yama/caspase-3 (Homo sapiens, UniProt P42574); assay: Western blot: binding of biotinylated substrate to recombinant Yama; details: FIG. 2B; 15 minutes with 2 mM biotin-DEVDamk
T3 construct: made in house
T3 sequence (P42574 29-175 limits assumed): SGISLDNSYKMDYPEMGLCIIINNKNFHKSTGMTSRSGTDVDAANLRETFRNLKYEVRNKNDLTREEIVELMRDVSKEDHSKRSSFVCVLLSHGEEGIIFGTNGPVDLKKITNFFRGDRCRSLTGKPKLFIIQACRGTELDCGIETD
T3 sequence (P42574 176-277 limits assumed): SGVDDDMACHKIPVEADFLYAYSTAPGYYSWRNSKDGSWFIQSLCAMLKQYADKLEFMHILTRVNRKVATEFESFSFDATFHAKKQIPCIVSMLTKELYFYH

[12] = test system: thymocytes in non-tg RAG-2−/− FTOC; format: cell-based, mouse
[13] = test system: thymic caspase; assay: caspase activation in thymic lysates of adult mice after tail vein peptide injection (Western blot); details: mouse, in vivo
[14] = test system: activated thymic caspase in adult N15 tg RAG-2−/− H-2b mice; details: mouse, in vivo

Question: What does the source list for `COC(=O)C[C@H](NC(=O)[C@H](C)NC(=O)[C@@H](NC(=O)OCc1ccccc1)C(C)C)C(=O)CF` [zVADfmk, N-benzyloxycarbonyl-Val-Ala-Asp-fluoromethylketone, b-methyl ester] (Cbz-Val-Ala-Asp(OMe)-CH2F)?
Answer: effect on anti-CD3ε (2C11) mAb-induced deletion of DP thymocytes ([1]; 2-hour preincubation, harvested 18 hours later): inhibited; also recorded: blocked; effect of agent alone on percentage of DP thymocytes in FTOC ([1]; FTOC C57BL/6, no 2C11): does not alter; blocking of biotin-DEVDamk binding to the antigen-activated caspase [2]: blocks binding; also recorded: prevents binding; effect on glucocorticoid-induced death [3]: blocked; effect on apoptosis induced by expression of REAPER protein [4]: blocks the induction of apoptosis; number of TdT (TUNEL) positive apoptotic cells in histological sections (in words) [5]: reduces the number of TdT+ cells to that of the control; also recorded: blocked; effect on dexamethasone (glucocorticoid)-induced death/deletion of DP thymocytes ([6]; 2-hour pretreatment with 100 μM zVADfmk): protects; also recorded: blocked; effect of pretreatment on VSV8-induced caspase activation (biotin-DEVDamk staining) [7]: blocked; effect on antigen (VSV8)-induced depletion of DP thymocytes [8]: completely blocks; also recorded: blocked; also recorded: blocks depletion

Question: Which “percentage of DP thymocytes” value ([6]; FTOC, control 74%) does the source give for `C[C@@H]1C[C@H]2[C@@H]3CCC4=CC(=O)C=C[C@]4(C)[C@@]3(F)[C@@H](O)C[C@]2(C)[C@@]1(O)C(=O)CO` [Dexamethasone] here?
Answer: 19%

Question: With FAPGNYPAL [SEV9] as the compound, how does the “depletion/death of DP thymocytes induced by peptide (in words)” value [8] read?
Answer: does not result in thymocyte death

Question: For `CC(=O)N[C@@H](Cc1ccc(O)cc1)C(=O)N[C@H](C(=O)N[C@@H](C)C(=O)N[C@H](C=O)CC(=O)O)C(C)C` [Ac-YVAD-CHO], which “fold lower concentration to inhibit caspase-1 than required to inhibit caspase-3” value [9] is on record?
Answer: ~10,000 fold

Question: With `Cc1cccc(C)c1C(=O)OCC(=O)C(CC(=O)O)NC(=O)[C@@H](NC(=O)[C@H](CCC(=O)O)NC(=O)[C@H](CC(=O)O)NC(=O)CCCC[C@@H]1SC[C@@H]2NC(=O)N[C@@H]21)C(C)C` (some centres unmarked) [biotin-DEVDamk, N-(Biotinylaspartylglutamylvalinyl)aspartic acid [(2,6-Dimethylbenzoyl)oxy]methyl Ketone] as the compound, how does the “binding of biotinylated substrate to recombinant Mch2a (caspase-6)” value [10] read?
Answer: bind

Question: What about the “detection of / affinity for the activated thymic caspase by biotinylated substrate” value [2] of the same compound?
Answer: highest affinity

Question: And the “binding of biotinylated substrate to recombinant Yama/caspase-3” value [11]?
Answer: bind

Question: What does the source list for RGYVYQGL [VSV8]?
Answer: TdT positive cells mm2, non-tg [12]: 9 mm2; time to induction of an active caspase after tail vein injection [13]: ≤ 2 h; TdT positive cells mm2, N15tg #1 [5]: 429 mm2; TdT positive cells mm2, N15tg #2 [5]: 456 mm2; TdT positive cells mm2, N15tg #3 [5]: 441 mm2; number of TdT (TUNEL) positive apoptotic cells in histological sections (in words) [5]: obvious increase; biotin-DEVDamk staining (activation of thymic caspase) in FTOC sections [7]: widespread biotin-DEVDamk staining throughout the cortex; depletion/death of DP thymocytes induced by peptide (in words) [8]: massive depletion; percent CD4+ CD8+ DP thymocytes [8]: 21; biotin-DEVDamk staining of thymic sections [14]: widespread biotin-DEVDamk staining

Question: Which results are given for `COC(=O)CC(NC(=O)C(C)NC(=O)C(NC(=O)OCc1ccccc1)C(C)C)C(C)=O` (centres unmarked) [zVADmk, N-(Z-Valinylalanyl)aspartic acid methyl ketone, b-methyl ester]?
Answer: blocking of biotin-DEVDamk binding to the antigen-activated caspase [2]: does not block; number of TdT (TUNEL) positive apoptotic cells in histological sections (in words) [5]: levels of TdT positive cells similar to cultures treated with VSV8 alone; also recorded: no effect; effect of pretreatment on VSV8-induced caspase activation (biotin-DEVDamk staining) [7]: not; effect on antigen (VSV8)-induced depletion of DP thymocytes [8]: has no effect; also recorded: fails to block
